Results taken from the NIST ThermoML archive (doi:10.1016/j.jct.2015.05.024).
± gives the expanded uncertainty stated by the source.

How the values were obtained:
[1] = 100 kPa, Liquid; for mass density: Vibrating tube method; for speed of sound: Frequency=5 MHz, Pulse-echo method
[2] = xn = mol fraction of the nth substance listed; conditions: 100 kPa, Liquid, x2 = 0; for mass density: Vibrating tube method; for speed of sound: Frequency=5 MHz, Pulse-echo method

OCCOCCOCCO [triethylene glycol]
mass density ([1]; 278.15 K): 1135.14 ± 0.34 kg/m3 | mass density ([1]; 283.15 K): 1131.29 ± 0.34 kg/m3 | speed of sound ([1]; 288.15 K): 1643.9 ± 1.4 m/s | mass density ([1]; 288.15 K): 1127.43 ± 0.33 kg/m3 | speed of sound ([1]; 293.15 K): 1629 ± 1.4 m/s | mass density ([1]; 293.15 K): 1123.56 ± 0.33 kg/m3 | speed of sound ([1]; 298.15 K): 1613.5 ± 1.4 m/s | mass density ([1]; 298.15 K): 1119.69 ± 0.33 kg/m3 | speed of sound ([1]; 303.15 K): 1599.1 ± 1.4 m/s | mass density ([1]; 303.15 K): 1115.81 ± 0.32 kg/m3 | speed of sound ([1]; 308.15 K): 1584.6 ± 1.4 m/s | mass density ([1]; 308.15 K): 1111.92 ± 0.32 kg/m3 | speed of sound ([1]; 313.15 K): 1569.1 ± 1.4 m/s | mass density ([1]; 313.15 K): 1108.03 ± 0.32 kg/m3 | speed of sound ([1]; 318.15 K): 1554.7 ± 1.4 m/s | mass density ([1]; 318.15 K): 1104.13 ± 0.31 kg/m3 | mass density ([1]; 323.15 K): 1100.22 ± 0.31 kg/m3 | mass density ([1]; 328.15 K): 1096.3 ± 0.31 kg/m3 | mass density ([1]; 333.15 K): 1092.38 ± 0.3 kg/m3

O [water]
mass density ([1]; 278.15 K): 999.965 ± 0.11 kg/m3 | mass density ([1]; 283.15 K): 999.698 ± 0.11 kg/m3 | speed of sound ([1]; 313.15 K): 1528.8 ± 0.99 m/s | speed of sound ([1]; 318.15 K): 1536.7 ± 0.99 m/s | mass density ([1]; 323.15 K): 988.027 ± 0.11 kg/m3 | mass density ([1]; 328.15 K): 985.682 ± 0.11 kg/m3 | mass density ([1]; 333.15 K): 983.186 ± 0.11 kg/m3

O [water] + OCCOCCOCCO
mass density ([2]; 278.15 K): 999.965 ± 0.11 kg/m3 | mass density ([2]; 283.15 K): 999.698 ± 0.11 kg/m3 | speed of sound ([2]; 313.15 K): 1528.8 ± 0.99 m/s | speed of sound ([2]; 318.15 K): 1536.7 ± 0.99 m/s | mass density ([2]; 323.15 K): 988.027 ± 0.11 kg/m3 | mass density ([2]; 328.15 K): 985.682 ± 0.11 kg/m3 | mass density ([2]; 333.15 K): 983.186 ± 0.11 kg/m3
